This note sets out measurements from patent US10981926B2 (Janssen Pharmaceutica NV, priority 2016, dated 2021).

Assay type in all cases: cell-based
Test [1] concerns the target T1, wild-type Androgen Receptor (AR-wt) (Homo sapiens (Human), UniProt P10275). Nature of the test: LNCaP-AR-wt ANT reporter assay (antagonist mode). The conditions noted are these: for Emax: read-out: LNCaP-AR-wt ANT MAX % Inh; for IC50: read-out: LNCaP-AR-wt ANT pIC50 (converted).
For test [2], the target named is T1, wild-type Androgen Receptor (AR-wt). In words: LNCaP-AR-wt AG reporter assay (agonist mode). The conditions noted are these: for Emax: read-out: LNCaP-AR-wt AG MAX % Stim; for EC50: read-out: LNCaP-AR-wt AG pEC50 (converted).
The target in test [3] is T2, F876L mutant Androgen Receptor (AR-F876L) (Homo sapiens (Human), UniProt P10275, F877L). Nature of the test: LNCaP-AR-F876L ANT reporter assay (antagonist mode). As to conditions: for Emax: read-out: LNCaP-AR-F876L ANT MAX % Inh; for IC50: read-out: LNCaP-AR-F876L ANT pIC50 (converted).
T2 sequence (P10275 whole entry F877L): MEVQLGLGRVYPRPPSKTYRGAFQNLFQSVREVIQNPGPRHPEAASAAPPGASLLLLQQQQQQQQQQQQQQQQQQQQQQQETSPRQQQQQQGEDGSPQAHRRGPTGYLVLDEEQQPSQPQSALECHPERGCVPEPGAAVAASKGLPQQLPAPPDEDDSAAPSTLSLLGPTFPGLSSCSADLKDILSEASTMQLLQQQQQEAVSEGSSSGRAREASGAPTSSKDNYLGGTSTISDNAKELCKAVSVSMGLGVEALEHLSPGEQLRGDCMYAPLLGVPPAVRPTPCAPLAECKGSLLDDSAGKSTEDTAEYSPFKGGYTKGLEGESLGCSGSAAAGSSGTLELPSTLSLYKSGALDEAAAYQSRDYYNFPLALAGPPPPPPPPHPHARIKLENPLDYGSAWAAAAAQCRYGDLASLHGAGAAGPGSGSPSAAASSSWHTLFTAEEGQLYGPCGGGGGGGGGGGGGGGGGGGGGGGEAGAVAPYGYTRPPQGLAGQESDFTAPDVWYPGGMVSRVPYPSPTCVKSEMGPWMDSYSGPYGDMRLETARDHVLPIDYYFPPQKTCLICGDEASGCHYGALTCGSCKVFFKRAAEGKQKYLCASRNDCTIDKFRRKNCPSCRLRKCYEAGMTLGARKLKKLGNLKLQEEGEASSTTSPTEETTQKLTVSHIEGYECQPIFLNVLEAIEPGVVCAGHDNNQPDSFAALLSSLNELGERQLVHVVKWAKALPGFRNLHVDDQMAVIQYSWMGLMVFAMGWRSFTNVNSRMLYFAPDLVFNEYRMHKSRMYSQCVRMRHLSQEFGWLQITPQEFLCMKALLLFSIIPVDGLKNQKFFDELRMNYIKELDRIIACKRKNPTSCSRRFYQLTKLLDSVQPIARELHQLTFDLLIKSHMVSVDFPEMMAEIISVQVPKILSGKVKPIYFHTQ
In test [4] the target is T2, F876L mutant Androgen Receptor (AR-F876L). In words: LNCaP-AR-F876L AG reporter assay (agonist mode). The conditions noted are these: for Emax: read-out: LNCaP-AR-F876L AG MAX % Stim; for EC50: read-out: LNCaP-AR-F876L AG pEC50 (converted).
Where [5] appears, read: antagonist mode, maximum % inhibition of R1881 control response over tested concentration range.
The mark [6] stands for this setting: antagonist mode, pIC50 = −Log10(IC50 in Molar).
[7] abbreviates: agonist mode, maximum % stimulation over tested concentration range.
Where [8] appears, read: agonist mode, pEC50 = −Log10(EC50 in Molar).
[9] abbreviates: maximum % inhibition of R1881 control response over the tested concentration range.
Setting [10] is: maximum % stimulation (agonist response) over the tested concentration range.

T1 sequence (P10275 whole entry): as the sequence (P10275 whole entry F877L) above, with L877F counted along it

As for `CN1CCC(C)(Oc2ccc(N3C(=S)N(c4cnc(C#N)c(C(F)(F)F)c4)C(=O)C34CCC4)cn2)CC1` [Cpd 210, 5-[8-[6-[(1,4-dimethyl-4-piperidyl)oxy]-3-pyridyl]-5-oxo-7-thioxo-6,8-diazaspiro[3.4]octan-6-yl]-3-(trifluoromethyl)pyridine-2-carbonitrile], the Emax is 102% in test [1] (setting [5]), 0.1% in test [2] (setting [7]), 100% in test [3] (setting [5]) and 0.1% in test [4] (setting [7]). The results for the IC50 in test [1] (setting [6]) and in test [3] (setting [6]) were 1170 nM and 1100 nM, respectively. The EC50 in test [2] (setting [8]) and in test [4] (setting [8]) was greater than 15100 nM each time.

On to `CN(C(=O)OC(C)(C)C)C1(COc2ccc(N3C(=S)N(c4cnc(C#N)c(C(F)(F)F)c4)C(=O)C34CCC4)cc2)COC1` [Cpd 196, tert-butyl N-[3-[[4-[6-[6-cyano-5-(trifluoromethyl)-3-pyridyl]-5-oxo-7-thioxo-6,8-diazaspiro[3.4]octan-8-yl]phenoxy]methyl]oxetan-3-yl]-N-methyl-carbamate], for which the Emax is 100% in test [1] (setting [5]), -0.2% in test [2] (setting [7]), 99.9% in test [3] (setting [5]) and 0.2% in test [4] (setting [7]). For the same compound, the IC50 was 589 nM in test [1] (setting [6]) and 437 nM in test [3] (setting [6]). Further, the EC50 in test [2] (setting [8]) and in test [4] (setting [8]) was greater than 15100 nM each time.

In the case of `N#Cc1ncc(N2C(=O)C3(CCC3)N(c3ccc(CN4CCN(C5CC5)CC4)cc3)C2=S)cc1C(F)(F)F` [Cpd 220, 5-[8-[4-[(4-cyclopropylpiperazin-1-yl)methyl]phenyl]-5-oxo-7-thioxo-6,8-diazaspiro[3.4]octan-6-yl]-3-(trifluoromethyl)pyridine-2-carbonitrile], the Emax in test [1] (setting [5]) came to 102%; in test [2] (setting [7]) it was 0.1%; in test [3] (setting [5]) it was 101%; in test [4] (setting [7]), 0.1%. The IC50 was 741 nM in test [1] (setting [6]) and 589 nM in test [3] (setting [6]). Also, the EC50 in test [2] (setting [8]) and in test [4] (setting [8]) was greater than 15100 nM in each case.

Regarding `COC(=O)C1CCC(N2C(=S)N(c3cnc(C#N)c(C(F)(F)F)c3)C(=O)C23CCC3)CC1` (centres unmarked) [Cpd 57, Methyl 4-[6-[6-cyano-5-(trifluoromethyl)-3-pyridyl]-5-oxo-7-thioxo-6,8-diazaspiro[3.4]octan-8-yl]cyclohexanecarboxylate], the IC50 in test [1] (setting [6]) was 490 nM; in test [3] (setting [6]), 200 nM. Further, the Emax came to 100% in test [1] (setting [9]), 0.3% in test [2] (setting [10]), 99.1% in test [3] (setting [9]) and 0.3% in test [4] (setting [10]). The EC50 in test [2] (setting [8]) and in test [4] (setting [8]) was greater than 15100 nM in each case.

As to `N#Cc1ncc(N2C(=O)C3(CCC3)N(c3ccc(OC4CCS(=O)(=O)CC4)cc3)C2=S)cc1C(F)(F)F` [Cpd 13, 5-{8-[4-(1,1-dioxothian-4-yloxy)phenyl]-5-oxo-7-thioxo-6,8-diazaspiro[3.4]oct-6-yl}-3-(trifluoromethyl)pyridine-2-carbonitrile], the values for the IC50 in test [1] (setting [6]) and in test [3] (setting [6]) were 537 nM and 363 nM, respectively. In addition, the Emax in test [1] (setting [9]) was determined as 101%; in test [2] (setting [10]), 0.5%; in test [3] (setting [9]), 98.1%; in test [4] (setting [10]), 1%. Moreover, the EC50 in test [2] (setting [8]) and in test [4] (setting [8]) was greater than 15100 nM in each case.

Take `N#Cc1ncc(N2C(=O)C3(CCC3)N(c3ccc(CN4CCOCC4)cc3)C2=S)cc1C(F)(F)F` [Cpd 217, 5-[8-[4-(morpholinomethyl)phenyl]-5-oxo-7-thioxo-6,8-diazaspiro[3.4]octan-6-yl]-3-(trifluoromethyl)pyridine-2-carbonitrile]: the Emax is 102% in test [1] (setting [5]), 0.4% in test [2] (setting [7]), 100% in test [3] (setting [5]) and 0.1% in test [4] (setting [7]). Moreover, the IC50 was 372 nM in test [1] (setting [6]) and 355 nM in test [3] (setting [6]). In addition, the EC50 in test [2] (setting [8]) and in test [4] (setting [8]) was greater than 15100 nM throughout.

Regarding `CC(C)(C)OC(=O)N1C2CCC1C(F)C(Oc1ccc(N3C(=S)N(c4cnc(C#N)c(C(F)(F)F)c4)C(=O)C34CCC4)cc1)C2` (centres unmarked) [Cpd 85, tert-butyl 3-[4-[6-[6-cyano-5-(trifluoromethyl)-3-pyridyl]-5-oxo-7-thioxo-6,8-diazaspiro[3.4]octan-8-yl]phenoxy]-4-fluoro-8-azabicyclo[3.2.1]octane-8-carboxylate], in test [1] (setting [6]), the “LNCaP-AR-wt ANT pIC50” value was determined as 6.46. For the same compound, the Emax in test [1] (setting [9]) is 88.3%; in test [2] (setting [10]), -0.1%; in test [3] (setting [9]), 85.8%; in test [4] (setting [10]), 0.6%. In addition, the “LNCaP-AR-wt AG pEC50” value in test [2] (setting [8]) is less than 4.82. The “LNCaP-AR-F876L ANT pIC50” value in test [3] (setting [6]) is given as 6.37. Further, the “LNCaP-AR-F876L AG pEC50” value in test [4] (setting [8]) is listed as less than 4.82.

As to `Cn1cnc2cc(N3C(=S)N(c4cnc(C#N)c(C(F)(F)F)c4)C(=O)C34CCC4)ccc21` [Cpd 244, 5-[8-(1-methylbenzimidazol-5-yl)-5-oxo-7-thioxo-6,8-diazaspiro[3.4]octan-6-yl]-3-(trifluoromethyl)pyridine-2-carbonitrile], the Emax in test [1] (setting [5]) is 98.7%; in test [2] (setting [7]) it was 0.2%; in test [3] (setting [5]), 101%; in test [4] (setting [7]) it was -0.5%. Also, the figures for the IC50 in test [1] (setting [6]) and in test [3] (setting [6]) were 646 nM and 245 nM, respectively. Moreover, the EC50 in test [2] (setting [8]) and in test [4] (setting [8]) was greater than 15100 nM in each case.

In the case of `CC(C)(C)OC(=O)N1CCC(Cn2cc3cc(N4C(=S)N(c5cnc(C#N)c(C(F)(F)F)c5)C(=O)C45CCC5)ccc3n2)CC1` [Cpd 122, tert-Butyl 4-[[5-[6-[6-cyano-5-(trifluoromethyl)-3-pyridyl]-5-oxo-7-thioxo-6,8-diazaspiro[3.4]octan-8-yl]indazol-2-yl]methyl]piperidine-1-carboxylate], the IC50 in test [1] (setting [6]) and in test [3] (setting [6]) was 282 nM throughout. Further, the Emax in test [1] (setting [9]) worked out at 98%; in test [2] (setting [10]) it was 0.3%; in test [3] (setting [9]) it was 96.4%; in test [4] (setting [10]), 0.7%. Also, the EC50 in test [2] (setting [8]) and in test [4] (setting [8]) was greater than 15100 nM in each case.

Regarding `COc1cc(N2C(=O)C3(CCC3)N(c3ccc4nn(C5CCNCC5)cc4c3)C2=S)cnc1C#N` [Cpd 214, 3-methoxy-5-[5-oxo-8-[2-(4-piperidyl)indazol-5-yl]-7-thioxo-6,8-diazaspiro[3.4]octan-6-yl]pyridine-2-carbonitrile], the Emax was found to be 100% in test [1] (setting [5]), 0.3% in test [2] (setting [7]), 99.9% in test [3] (setting [5]) and 0% in test [4] (setting [7]). In addition, the results for the IC50 in test [1] (setting [6]) and in test [3] (setting [6]) were 288 nM and 219 nM, respectively. For the same compound, the EC50 in test [2] (setting [8]) and in test [4] (setting [8]) was greater than 15100 nM in each case.

`N#Cc1ncc(N2C(=O)C3(CCC3)N(c3ccc4c(cnn4CC4CCNCC4)c3)C2=S)cc1C(F)(F)F` [Cpd 128, 5-(8-Oxo-5-(1-(piperidin-4-ylmethyl)-1H-indazol-5-yl)-6-thioxo-5,7-diazaspiro[3.4]octan-7-yl)-3-(trifluoromethyl)picolinonitrile]: the IC50 in test [1] (setting [6]) was 1070 nM; in test [3] (setting [6]), 468 nM. For the same compound, the Emax in test [1] (setting [9]) came to 101%; in test [2] (setting [10]) it was 0.2%; in test [3] (setting [9]), 101%; in test [4] (setting [10]) it was 0.3%. The EC50 in test [2] (setting [8]) and in test [4] (setting [8]) was greater than 15100 nM in each case.

With `COc1cc(N2C(=S)N(c3cnc(C#N)c(C)c3)C(=O)C23CCC3)ccc1-c1ccc(C)o1` [Cpd 5, 5-{8-[3-methoxy-4-(5-methyl(2-furyl))phenyl]-5-oxo-7-thioxo-6,8-diazaspiro[3.4]oct-6-yl}-3-methylpyridine-2-carbonitrile], the values for the IC50 in test [1] (setting [6]) and in test [3] (setting [6]) were 676 nM and 661 nM, respectively. For the same compound, the Emax came out at 98.8% in test [1] (setting [9]), 1.2% in test [2] (setting [10]), 90.3% in test [3] (setting [9]) and 3.3% in test [4] (setting [10]). The EC50 in test [2] (setting [8]) and in test [4] (setting [8]) was greater than 15100 nM each time.

Regarding `CN1CCC12CC(Oc1ccc(N3C(=S)N(c4cnc(C#N)c(C(F)(F)F)c4)C(=O)C34CCC4)cn1)C2` (centres unmarked) [Cpd 193, 5-[8-[6-[(3-methyl-3-azaspiro[3.3]heptan-6-yl)oxy]-3-pyridyl]-5-oxo-7-thioxo-6,8-diazaspiro[3.4]octan-6-yl]-3-(trifluoromethyl)pyridine-2-carbonitrile], the Emax in test [1] (setting [5]) came to 101%; in test [2] (setting [7]) it was 0.1%; in test [3] (setting [5]), 101%; in test [4] (setting [7]) it was 0.4%. Further, the values for the IC50 in test [1] (setting [6]) and in test [3] (setting [6]) were 229 nM and 191 nM, respectively. Also, the EC50 in test [2] (setting [8]) and in test [4] (setting [8]) was greater than 15100 nM each time.
